Reference: the supplement of paper PMC11451515

System: NOMO1
Experiment: cell viability relative to DMSO control; higher = less cytotoxic
Details: 48 h
Procedure, shortened: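 Leukemia cells (NOMO1 or SEM, 500 cells/well; P12-Ichikawa, 1000 cells/well) were seeded in 5 μl in 1536-well plates after at least four passages of adaptation to each medium. They received library compounds in DMSO by pin dosing, 11 threefold points from 47 μM to 0.79 nM. Luminescence with CellTiter-Glo One was read after 48 h at 37°C. Viability is stated per plate relative to DMSO wells, with cell-free wells as background.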

[1] = HPLM + 10% dialyzed FBS, 0.000781 µM
[2] = HPLM + 10% dialyzed FBS, 0.00234 µM
[3] = HPLM + 10% dialyzed FBS, 0.00702 µM
[4] = HPLM + 10% dialyzed FBS, 0.0211 µM
[5] = HPLM + 10% dialyzed FBS, 0.0632 µM
[6] = HPLM + 10% dialyzed FBS, 0.19 µM
[7] = HPLM + 10% dialyzed FBS, 0.569 µM
[8] = HPLM + 10% dialyzed FBS, 1.71 µM
[9] = HPLM + 10% dialyzed FBS, 5.12 µM
[10] = HPLM + 10% dialyzed FBS, 15.4 µM
[11] = HPLM + 10% dialyzed FBS, 46.1 µM
[12] = RPMI 5 mM glucose + 10% FBS, 0.000781 µM
[13] = RPMI 5 mM glucose + 10% FBS, 0.00234 µM
[14] = RPMI 5 mM glucose + 10% FBS, 0.00702 µM
[15] = RPMI 5 mM glucose + 10% FBS, 0.0211 µM
[16] = RPMI 5 mM glucose + 10% FBS, 0.0632 µM
[17] = RPMI 5 mM glucose + 10% FBS, 0.19 µM
[18] = RPMI 5 mM glucose + 10% FBS, 0.569 µM
[19] = RPMI 5 mM glucose + 10% FBS, 1.71 µM
[20] = RPMI 5 mM glucose + 10% FBS, 5.12 µM
[21] = RPMI 5 mM glucose + 10% FBS, 15.4 µM
[22] = RPMI 5 mM glucose + 10% FBS, 46.1 µM
[23] = RPMI 5 mM glucose + 10% dialyzed FBS, 0.000781 µM
[24] = RPMI 5 mM glucose + 10% dialyzed FBS, 0.00234 µM
[25] = RPMI 5 mM glucose + 10% dialyzed FBS, 0.00702 µM
[26] = RPMI 5 mM glucose + 10% dialyzed FBS, 0.0211 µM
[27] = RPMI 5 mM glucose + 10% dialyzed FBS, 0.0632 µM
[28] = RPMI 5 mM glucose + 10% dialyzed FBS, 0.19 µM
[29] = RPMI 5 mM glucose + 10% dialyzed FBS, 0.569 µM
[30] = RPMI 5 mM glucose + 10% dialyzed FBS, 1.71 µM
[31] = RPMI 5 mM glucose + 10% dialyzed FBS, 5.12 µM
[32] = RPMI 5 mM glucose + 10% dialyzed FBS, 15.4 µM
[33] = RPMI 5 mM glucose + 10% dialyzed FBS, 46.1 µM

| SMILES | cell viability [1] | cell viability [2] | cell viability [3] | cell viability [4] | cell viability [5] | cell viability [6] | cell viability [7] | cell viability [8] | cell viability [9] | cell viability [10] | cell viability [11] | cell viability [12] | cell viability [13] | cell viability [14] | cell viability [15] | cell viability [16] | cell viability [17] | cell viability [18] | cell viability [19] | cell viability [20] | cell viability [21] | cell viability [22] | cell viability [23] | cell viability [24] | cell viability [25] | cell viability [26] | cell viability [27] | cell viability [28] | cell viability [29] | cell viability [30] | cell viability [31] | cell viability [32] | cell viability [33] |
| --- | --- | --- | --- | --- | --- | --- | --- | --- | --- | --- | --- | --- | --- | --- | --- | --- | --- | --- | --- | --- | --- | --- | --- | --- | --- | --- | --- | --- | --- | --- | --- | --- | --- |
| CN(C)c1ccc(-c2nc3c(N4CCN(CC(=O)Nc5nccs5)CC4)c(Cl)cnc3[nH]2)cc1 | 117% | 130% | 121% | 124% | 113% | 127% | 112% | 102% | 101% | 89.9% | 69.2% | 102% | 99.3% | 98.6% | 94.6% | 101% | 108% | 93.6% | 109% | 103% | 89.9% | 77.7% | 108% | 107% | 103% | 108% | 113% | 106% | 101% | 107% | 98.3% | 94.8% | 70.3% |
| CC(=O)N(O)CCCCCNC(=O)CCC(=O)N(O)CCCCCNC(=O)CCC(=O)N(O)CCCCCN.C[S+](=O)([O-])O | 90.9% | 83.7% | 81.8% | 32.6% | 34% | 34.6% | 28.3% | 27.2% | 27.7% | 23.6% | 21.5% | 88.8% | 97.4% | 115% | 45.7% | 28.1% | 17.6% | 24.9% | 20.9% | 16.4% | 10.6% | 12.5% | 86% | 105% | 113% | 106% | 79.1% | 26.3% | 26.4% | 21.4% | 23.8% | 18.2% | 17.4% |
| CCC(=O)O[C@@]1(CC[C@H]2[C@@H]3CCC/4=C/C(=O)CC[C@]4(C)[C@H]3CC[C@]12C)C(=O)CO | 75.8% | 115% | 103% | 111% | 119% | 128% | 106% | 140% | 108% | 85.4% | 78.7% | 109% | 112% | 106% | 111% | 107% | 118% | 115% | 104% | 104% | 108% | 103% | 107% | 103% | 102% | 119% | 124% | 122% | 124% | 129% | 128% | 86.1% | 83.3% |
| CC[C@H](CO)Nc1nc(NCc2ccccc2)c2ncn(C(C)C)c2n1 | 98.6% | 95.1% | 98.5% | 99.4% | 89.8% | 88% | 89.4% | 82.9% | 85.7% | 96.4% | 54.2% | 82.5% | 93.9% | 93.9% | 83.7% | 84.3% | 88.3% | 87.4% | 79.5% | 84.2% | 77% | 76.6% | 96.7% | 96.3% | 85.2% | 90.9% | 94.1% | 86.2% | 95.2% | 90.1% | 94.2% | 77.3% | 70.3% |
| O=C(Nc1ccccc1)Nc1ccc(-c2ccc(C(=O)[C@@H]3CCC[C@H]3C(=O)O)cc2)cc1 | 109% | 122% | 103% | 94.1% | 119% | 98.3% | 99% | 77% | 67.2% | 66.7% | 56.5% | 109% | 111% | 98.6% | 101% | 110% | 97.7% | 100% | 95.9% | 90.6% | 83.5% | 69.5% | 105% | 121% | 114% | 105% | 122% | 97.9% | 88.8% | 96% | 81.8% | 73.7% | 59.7% |
| C[S+](=O)([O-])N1CCN(Cc2cc3nc(-c4cccc5[nH]ncc45)nc(N4CCOCC4)c3s2)CC1 |  |  |  |  |  |  |  |  |  |  |  | 113% | 133% | 116% | 132% | 128% | 133% | 117% | 107% | 80.3% | 80.6% | 65.5% |  |  |  |  |  |  |  |  |  |  |  |
| CN(CC(=O)N(Cc1ccc(C2CCCCC2)cc1)c1ccc(C(=O)O)c(O)c1)[S+](=O)([O-])c1c(F)c(F)c(F)c(F)c1F | 101% | 109% | 104% | 101% | 117% | 107% | 101% | 102% | 95.1% | 83.5% | 31.7% | 92.8% | 82.5% | 88.4% | 84.3% | 88.5% | 88.6% | 86.9% | 87.7% | 83.9% | 83.4% | 63% | 74.1% | 95.2% | 103% | 94.1% | 93.8% | 110% | 95.4% | 95.3% | 95.6% | 86.6% | 51.8% |
| O=C(NOCC1CC1)c1ccc(F)c(F)c1Nc1ccc(I)cc1Cl | 97.2% | 109% | 123% | 115% | 99.1% | 91.7% | 74.7% | 68.5% | 52% | 49.3% | 41.4% | 84.5% | 91.6% | 100% | 112% | 95.1% | 93.8% | 73.5% | 83.5% | 56.9% | 46.9% | 50% | 95.7% | 108% | 97.2% | 107% | 92.4% | 86.8% | 82.1% | 75.6% | 44.2% | 42.8% | 44.4% |
| O=c1oc2cc(O)ccc2s1 | 109% | 128% | 120% | 107% | 114% | 110% | 110% | 95.8% | 101% | 110% | 90.3% | 109% | 117% | 130% | 108% | 105% | 116% | 108% | 108% | 115% | 102% | 98.3% | 98.1% | 116% | 117% | 119% | 103% | 104% | 112% | 105% | 101% | 107% | 109% |
| Clc1ccc(C(c2ccc(Cl)cc2)[n+]2ccn(CC(OCc3ccc(Cl)cc3Cl)c3ccc(Cl)cc3Cl)c2)cc1 (stereo unspecified) | 108% | 99% | 113% | 110% | 107% | 107% | 115% | 102% | 101% | 81.2% | 3.86% | 94.6% | 100% | 105% | 94.7% | 119% | 113% | 91% | 103% | 102% | 74.3% | 3.56% | 105% | 105% | 118% | 114% | 112% | 107% | 98.5% | 91.3% | 90.4% | 83% | 2.5% |
| Nc1nccc(-c2ccc3noc(-c4ccc(Cl)cc4)c3c2)n1 |  |  |  |  |  |  |  |  |  |  |  | 101% | 117% | 103% | 127% | 102% | 111% | 115% | 107% | 108% | 101% | 104% | 121% | 115% | 115% | 120% | 122% | 110% | 127% | 106% | 118% | 116% | 113% |
| COc1c(N2C[C@@H]3CCCN[C@@H]3C2)c(F)cc2c(=O)c(C(=O)O)cn(C3CC3)c12.Cl.O | 118% | 115% | 103% | 104% | 100% | 87.2% | 82.6% | 101% | 92.4% | 80.5% | 87.5% | 92.2% | 94.1% | 103% | 105% | 113% | 93.8% | 95% | 93.7% | 97.6% | 85.9% | 85.5% | 105% | 98.5% | 108% | 106% | 99.1% | 87.3% | 96% | 98.4% | 87.4% | 86.3% | 85.6% |
| CCC(=O)NC[C@H](Cc1ccc(OCCc2nc(-c3ccccc3)oc2C)cc1)N/C(C)=C\C(=O)c1ccc(C(F)(F)F)cc1 | 98.9% | 104% | 101% | 122% | 114% | 130% | 96.3% | 104% | 103% | 54.3% | 27.1% | 102% | 114% | 109% | 99.6% | 106% | 112% | 101% | 109% | 113% | 62.4% | 19.2% | 97.9% | 113% | 102% | 115% | 106% | 117% | 107% | 107% | 90.8% | 105% | 43.7% |
| COc1cc2c(cc1O)CCC1C2CC[C@@]2(C)C1CC[C@@H]2O (stereo partly specified) |  |  |  |  |  |  |  |  |  |  |  | 117% | 111% | 103% | 110% | 121% | 120% | 111% | 101% | 84.2% | 25.1% | 32.6% | 118% | 129% | 117% | 116% | 121% | 115% | 119% | 115% | 63.8% | 33.9% | 40.4% |
| Cn1cnc(N)c2ncnc1-2 | 111% | 130% | 108% | 117% | 139% | 92.4% | 139% | 80.3% | 63.5% | 11.5% | 6.59% | 99.7% | 113% | 117% | 119% | 131% | 111% | 118% | 117% | 94.7% | 18.5% | 9.02% | 102% | 124% | 118% | 130% | 135% | 113% | 120% | 118% | 79.7% | 19.3% | 11.9% |
